Test results from patent US20100093062A1, “TR[…] FOR PERKINSUS SPECIES” (priority 2007, published 2010).
Entries after “also recorded” stand apart in the source; their conditions may differ.

Tested on: Perkinsus proliferation
Test: Effect of selectable marker candidates on Perkinsus proliferation (OD600 over time, visual inspection of treated cells)
Type: cell-based, Perkinsus marinus
Conditions: for position of OD600 curve in FIG. 2: at 15 days, curves ranked top to bottom; for effect on parasite growth / Perkinsus proliferation: FIG. 2, optical density (OD600) as a function of time in days
Method: FIG. 2 is a graph of Optical density (OD600) as a function of time, in days, for various selectable marker candidates for their effect on Perkinsus proliferation. […]
G418 (800 μg/ml) was highly toxic, with visible effects six days after treatment. […] Visual inspection of the treated cells indicated changes in the morphology and cell death. These changes were more evident for G418 and pyrimethamine than with the CAP treatment.

CN[C@@H]1[C@@H](O)[C@@H](O[C@@H]2[C@@H](O)[C@H](O[C@H]3O[C@H]([C@@H](C)O)[C@@H](O)[C@H](O)[C@H]3N)[C@@H](N)C[C@H]2N)OC[C@]1(C)O [G418]
position of OD600 curve in FIG. 2 (100 μg/ml): lowest curve
position of OD600 curve in FIG. 2 (400 μg/ml): seventh highest curve
time to visible effects after treatment (800 μg/ml): six
toxicity to the parasite (800 μg/ml): highly toxic
position of OD600 curve in FIG. 2 (800 μg/ml): sixth highest curve
time to cells dying after treatment (100 and 400 μg/ml): 15 days
effect on parasite growth / Perkinsus proliferation: inhibited parasite growth; also recorded: inhibition of Perkinsus proliferation, especially G418
changes in the morphology and cell death, visual inspection of treated cells (compared with the CAP treatment): more evident
effect on parasite growth (lower doses tested, 100 and 400 μg/ml): still inhibited parasite growth

O=C(N[C@H](CO)[C@H](O)c1ccc([N+](=O)[O-])cc1)C(Cl)Cl [chloramphenicol]
position of OD600 curve in FIG. 2 (50 μg/ml): third highest curve
position of OD600 curve in FIG. 2 (100 μg/ml): fourth highest curve
position of OD600 curve in FIG. 2 (400 μg/ml): fifth highest curve
effect on parasite growth / Perkinsus proliferation: inhibited parasite growth
effect on parasite growth / Perkinsus proliferation (listed as CAP): inhibition of Perkinsus proliferation
